Results as given in patent publication US20100240537A1, “Substituted 6-(alkylbenzylamino)purine derivatives for use as cytokinin receptor antagonists and preparations containing these derivatives” (priority 2007, published 2010).
Like-named read-outs stand apart in the source and are kept apart here.

Experiments:
[1] = tested on: melanoma cell line G-361; assay: Calcein AM cytotoxicity assay, G-361; assay type: cell-based, human; details: Homo sapiens, G-361, 72 hours
Text: Absence of toxic effects against mammalian (especially human) cell lines in a wide concentration range is one of the requirements on compounds intended for use in agriculture. Because toxic compounds negatively influence metabolic processes in cells, many standard cytotoxicity assays are based on measurement of metabolisation rate of various artificial substrates. Resulting product is then quantified e.g. by means of spectrometry. The assays can be easily modified for use in 96-well plates. For evaluation of cytotoxic effect of the novel substituted 6-(alkylbenzylamino)purine derivatives of this invention, a microtiter assay based on quantification of metabolisation of Calcein AM was used. The assay is widely used in drug screening programs and in chemosensitivity testing. In live cells, Calcein AM is enzymatically hydrolysed and accumulation of resulting calcein is manifested by green fluorescence.
The cells were maintained in Nunc/Corning 80 cm^2 plastic tissue culture flasks and cultured in cell culture medium (DMEM with 5 g/l glucose, 2 mM glutamine, 100 U/ml penicillin, 100 μg/ml streptomycin, 10% fetal calf serum and sodium bicarbonate).
The cell suspensions were prepared and diluted according to the particular cell type and the expected target cell density (10^4 cells per well based on cell growth characteristics) and pippetted (80 μl) into 96-well plates. Inoculates were allowed a pre-incubation period of 24 hours at 37° C., 100% humidity and 5% CO2 for stabilisation. Tested compounds were added in total volume of 20 μl of water at time zero. Usually, test compound was evaluated at six 3-fold dilutions. In routine testing, the highest concentration tested was 100 μM, the eventual changes depended on physico-chemical characteristics of the respective compound. All drug concentrations were tested in triplicates. Incubations of cells with the test compounds lasted for 72 hours at 37° C., in 5% CO2 atmosphere and 100% humidity. At the end of incubation period Calcein AM (Molecular Probes) in PBS was added into final concentration of 1 μg/ml. After another 1 hour of incubation fluorescence (FD) was measured with the Labsystem FIA Reader Fluoroscan Ascent (UK). Growth inhibition (GI) was estimated using the following equitation: GI=(mean FDdrug exposed wells−mean FDblank)/(mean FDcontrol wells−mean FDblank)×100%.

[2] = molecular target: T1, AHK3 (Arabidopsis thaliana, UniProt Q9C5U1); assay: Activation of cytokinin receptor AHK3 in E. coli KMI001 (β-galactosidase reporter); assay type: cell-based
T1 construct: expressed in transfected cells; host or cells: Escherichia coli KMI001, plasmid pSTV28-AHK3
T1 sequence (Q9C5U1 1-1036): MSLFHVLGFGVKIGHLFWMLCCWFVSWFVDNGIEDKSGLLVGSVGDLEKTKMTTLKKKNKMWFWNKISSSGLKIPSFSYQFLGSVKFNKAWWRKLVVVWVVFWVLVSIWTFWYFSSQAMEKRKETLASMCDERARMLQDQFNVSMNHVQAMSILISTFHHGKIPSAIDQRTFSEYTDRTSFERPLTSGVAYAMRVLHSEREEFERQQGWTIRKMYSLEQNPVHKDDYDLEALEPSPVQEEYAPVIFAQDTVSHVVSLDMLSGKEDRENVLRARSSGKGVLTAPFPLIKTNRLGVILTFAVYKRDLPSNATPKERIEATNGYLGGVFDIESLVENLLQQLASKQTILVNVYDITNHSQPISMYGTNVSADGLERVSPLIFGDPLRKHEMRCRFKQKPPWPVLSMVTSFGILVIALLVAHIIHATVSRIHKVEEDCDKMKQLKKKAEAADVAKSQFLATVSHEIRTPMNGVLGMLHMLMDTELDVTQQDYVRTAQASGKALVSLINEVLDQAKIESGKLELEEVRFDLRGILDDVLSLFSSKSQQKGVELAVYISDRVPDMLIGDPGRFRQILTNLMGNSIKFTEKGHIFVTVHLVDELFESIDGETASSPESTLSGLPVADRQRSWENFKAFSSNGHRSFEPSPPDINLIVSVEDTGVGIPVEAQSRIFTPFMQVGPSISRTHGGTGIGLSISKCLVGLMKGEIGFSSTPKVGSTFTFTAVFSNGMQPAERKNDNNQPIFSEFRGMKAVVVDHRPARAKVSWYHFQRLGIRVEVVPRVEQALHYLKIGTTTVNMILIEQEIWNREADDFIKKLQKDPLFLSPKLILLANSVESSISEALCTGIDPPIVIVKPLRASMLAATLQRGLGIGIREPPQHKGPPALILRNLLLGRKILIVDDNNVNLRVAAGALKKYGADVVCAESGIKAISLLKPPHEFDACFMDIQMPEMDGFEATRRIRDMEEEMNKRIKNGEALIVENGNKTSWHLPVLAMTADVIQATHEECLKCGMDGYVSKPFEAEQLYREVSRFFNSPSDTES
Procedure: Escherichia coli strains KMI001 harbouring the plasmid pIN-III-AHK4 or pSTV28-AHK3 were grown overnight at 25° C. in M9 media enriched with 0.1% casamino acids to OD600˜1. The preculture was diluted 1:600 in 1 ml M9 medium containing 0.1% casamino acids and 1 μl stock solution of either the tested compound (10^−7 M−5×10^−5 M) or solvent control (DMSO, ethanol, methanol) were added. The cultures were further grown at 25° C. in microtiter plate, 200 μl per well. […] The cultures were centrifuged and 50 μl aliquots of the supernatant were transferred to microtiter plate containing 2 μl 50 mM 4-methyl umbelliferyl galactoside which was subsequently incubated for 1 h at 37° C. The reaction was stopped by adding 100 μl 0.2 M Na2CO3. Fluorescence was measured using a Fluoroscan Ascent (Labsystems, Finland) at the excitation and emission wavelengths of 365 and 460 nm, respectively. The OD600 of remaining culture was determined and β-galactosidase activity was calculated as nmol 4-methylumbelliferone×OD600^−1×h^−1.
The EC50 value, the compound concentration activating the receptor to 50%, was calculated from the obtained dose response curves. The compound functioning as cytokinin antagonists should not activate cytokinin signalling pathway. The values shown in Table 2 are means of three replicates and the entire test was repeated at least twice.

[3] = E. coli KMI001 pSTV28-AHK3, 28 h incubation, n.i. means without interaction, read-out: EC50 AHK3 (activation of cytokinin receptor)

Structure (SMILES)	GI50 [1] [µM]	EC50 [2, 3] [µM]	EC50 [2] [µM]
Cc1cccc(CNc2ncnc3nc[nH]c23)c1O [Compound 8, 6-(2-hydroxy-3-methylbenzylamino)purine]	> 50	> 100	
c1ccc(CNc2ncnc3nc[nH]c23)cc1 [6-(benzylamino)purine]	> 100		18.2
Cc1ccc(O)c(CNc2ncnc3nc[nH]c23)c1 [Compound 10, 6-(2-hydroxy-5-methylbenzylamino)purine]	> 100	> 100	
